In ChEMBL document CHEMBL4265932, “Advances in diarylpyrimidines and related analogues as HIV-1 nonnucleoside reverse transcriptase inhibitors” (Eur J Med Chem, 2018):

Tests used:
[1] = Selectivity index, ratio of CC50 for human MT4 cells to EC50 for wild-type HIV1 3B reverse transcriptase infected in human MT4 cells; format: toxicity, cell-based; conditions: read-out: Ratio CC50/EC50
[2] = Selectivity index, ratio of CC50 for human TZM-bl cells to EC50 for wild-type HIV1 infected in human TZM-bl cells; format: toxicity, cell-based; conditions: read-out: Ratio CC50/EC50
[3] = tested on: Human immunodeficiency virus 1; assay: Antiviral activity against wild-type HIV1 infected in human TZM-bl cells pretreated with cells for 30 mins followed by viral infection and measured after 48 hrs by luciferase reporter gene assay; format: functional, organism-based; conditions: Human immunodeficiency virus 1, TZM-bl
[4] = molecular target: T1, Human immunodeficiency virus type 1 reverse transcriptase (Human immunodeficiency virus 1, UniProt Q72547); assay: Inhibition of wild-type HIV1 3B reverse transcriptase
[5] = molecular target: T2, Human immunodeficiency virus type 1 reverse transcriptase (Human immunodeficiency virus 1, UniProt Q72547, K103N/Y181C); assay: Inhibition of HIV1 RES056 reverse transcriptase K103N/Y181C double mutant
[6] = molecular target: Human immunodeficiency virus type 1 reverse transcriptase (Human immunodeficiency virus 1, UniProt Q72547, L100I); assay: Inhibition of recombinant HIV1 reverse transcriptase L100I mutant
[7] = molecular target: Human immunodeficiency virus type 1 reverse transcriptase (Human immunodeficiency virus 1, UniProt Q72547, Y181C); assay: Inhibition of recombinant HIV1 reverse transcriptase Y181C mutant
[8] = molecular target: Human immunodeficiency virus type 1 reverse transcriptase (Human immunodeficiency virus 1, UniProt Q72547, Y188L); assay: Inhibition of recombinant HIV1 reverse transcriptase Y188L mutant
[9] = molecular target: Human immunodeficiency virus type 1 reverse transcriptase (Human immunodeficiency virus 1, UniProt Q72547, K103N); assay: Inhibition of recombinant HIV1 reverse transcriptase K103N mutant
[10] = molecular target: Human immunodeficiency virus type 1 reverse transcriptase (Human immunodeficiency virus 1, UniProt Q72547, K103N/L100I); assay: Inhibition of recombinant HIV1 reverse transcriptase L100I/K103N double mutant
[11] = molecular target: T2, Human immunodeficiency virus type 1 reverse transcriptase; assay: Inhibition of recombinant HIV1 reverse transcriptase K103N/Y181C double mutant
[12] = molecular target: T1, Human immunodeficiency virus type 1 reverse transcriptase; assay: Inhibition of HIV1 reverse transcriptase

Structure (SMILES): N#Cc1ccc(Nc2nccc(Oc3ccc4cc(C#N)ccc4c3Br)n2)cc1
- selectivity ratio [1]: 181000

Structure (SMILES): Cc1cc(/C=C/C#N)cc(C)c1Nc1ccc(F)c(Nc2ccc(C#N)cc2)n1
- selectivity ratio [2]: 62500
- EC50 [3]: 0.0016 µM

Structure (SMILES): Cc1cc(C#N)cc(C)c1Nc1ncc(F)c(Nc2ccc(C#N)cc2)n1
- selectivity ratio [2]: 36000
- EC50 [3]: 0.0028 µM

Structure (SMILES): Cc1cc(/C=C/C#N)cc(F)c1Nc1ccc(F)c(Nc2ccc(C#N)cc2)n1
- selectivity ratio [2]: > 100000
- EC50 [3]: 0.001 µM

Structure (SMILES): Cc1cc(/C=C/C#N)cc(C)c1Nc1ncc(F)c(Nc2ccc(C#N)cc2)n1
- selectivity ratio [2]: > 42000
- EC50 [3]: 0.0009 µM

Structure (SMILES): N#Cc1ccc(Nc2nccc(/C(=N\N)c3ccccc3Br)n2)cc1
- EC50 [4]: 0.0017 µM
- EC50 [5]: > 9.2 µM

Structure (SMILES): N#Cc1ccc(Nc2nccc(Oc3ccc4ccccc4c3Br)n2)cc1
- selectivity ratio [1]: 65600

Structure (SMILES): Cc1cc(C)c(Nc2ccnc(Nc3ccc(C(N)=O)cc3)n2)c(C)c1
- IC50 [4]: 0.0631 µM
- IC50 [6]: > 10 µM
- IC50 [7]: > 10 µM
- IC50 [8]: > 10 µM
- IC50 [9]: > 10 µM

Structure (SMILES): N#Cc1ccc(Nc2nccc(/C(=N\N)c3ccc4ccccc4c3)n2)cc1
- EC50 [4]: 0.0084 µM
- EC50 [5]: 8.4 µM

Structure (SMILES): Cc1cc(C)c(Nc2ccnc(Nc3ccc(Cl)cc3)n2)c(C)c1
- IC50 [4]: 0.00316 µM
- IC50 [6]: 0.2 µM
- IC50 [7]: 0.0794 µM
- IC50 [8]: 2.51 µM
- IC50 [9]: 0.0251 µM
- IC50 [10]: > 10 µM

Structure (SMILES): Cc1cc(C)c(Nc2ccnc(Nc3ccc(C#N)cc3)n2)c(C)c1 [DAPIVIRINE]
- IC50 [4]: 0.001 µM
- IC50 [6]: 0.0158 µM
- IC50 [7]: 0.00794 µM
- IC50 [8]: 0.0398 µM
- IC50 [9]: 0.00398 µM
- IC50 [11]: 0.0398 µM
- IC50 [10]: > 10 µM

Structure (SMILES): CC(=O)c1ccc(C)cc1NC(C(N)=O)c1c(Cl)cccc1Cl (stereo not drawn) [LOVIRIDE]
- EC50 [12]: 0.013 µM
